In PubChem BioAssay AID252 (DTP/NCI, 2004):
Values joined by “and” are separate entries in the source; they are usually repeats but may differ in a detail not shown here. Equal entries are not always repeated. Inconclusive results and toxic doses are left out. How the source made its calls: active means survival T/C of 150% or more; inactive means T/C below 125% in these data.

Tested on: BDF1 mice, intracerebral L1210 leukemia, survival T/C
Experiment: NCI In Vivo Anticancer Drug Screen. Data for tumor model L1210 Leukemia (intracerebral) in B6D2F1 (BDF1) mice
Details: higher = longer survival
In short: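 Transplantable tumour-bearing mice, compound-treated vs vehicle controls; read-out survival, reported as T/C ratio.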

Measured: T/C

O=c1cn[nH]c(=O)[nH]1
inactive: endpoint: mean survival time, dose: 440.0 mg/kg/injection, schedule: Q01DX001 (ip), vehicle: carboxymethylcellulose (CMC) 102 % of control | endpoint: mean survival time, dose: 670.0 mg/kg/injection, schedule: Q01DX001 (ip), vehicle: carboxymethylcellulose (CMC) 101 % of control | endpoint: mean survival time, dose: 1000.0 mg/kg/injection, schedule: Q01DX001 (ip), vehicle: carboxymethylcellulose (CMC) 101 % of control

O=P1(N(CCCl)CCCl)NCCCO1 (stereo unspecified)
active: endpoint: mean survival time, dose: 39.0 mg/kg/injection, schedule: Q01DX009 (sc), vehicle: saline 151 % of control | endpoint: mean survival time, dose: 65.0 mg/kg/injection, schedule: Q01DX009 (sc), vehicle: saline 151 % of control | endpoint: mean survival time, dose: 118.0 mg/kg/injection, schedule: Q01DX001 (ip), vehicle: saline 158 % of control | endpoint: mean survival time, dose: 230.0 mg/kg/injection, schedule: Q01DX001 (ip), vehicle: saline 157 % of control | endpoint: mean survival time, dose: 234.0 mg/kg/injection, schedule: Q01DX001 (ip), vehicle: saline 168 % of control | endpoint: mean survival time, dose: 468.0 mg/kg/injection, schedule: Q01DX001 (ip), vehicle: saline 152 % of control and 172 % of control | endpoint: mean survival time, dose: 560.0 mg/kg/injection, schedule: Q01DX001 (ip), vehicle: saline 151 % of control | endpoint: median survival time, dose: 2000.0 mg/kg/injection, schedule: Q01DX001 (oral), vehicle: saline 516 % of control
inactive: endpoint: mean survival time, dose: 17.5 mg/kg/injection, schedule: Q01DX Z (ip), vehicle: saline 116 % of control | endpoint: mean survival time, dose: 22.0 mg/kg/injection, schedule: Q01DX015 (ip), vehicle: saline 112 % of control | endpoint: mean survival time, dose: 25.0 mg/kg/injection, schedule: Q01DX Z (ip), vehicle: saline 121 % of control | endpoint: mean survival time, dose: 28.0 mg/kg/injection, schedule: Q01DX001 (ip), vehicle: saline 104 % of control and 118 % of control | endpoint: mean survival time, dose: 33.5 mg/kg/injection, schedule: Q01DX015 (ip), vehicle: saline 123 % of control | endpoint: mean survival time, dose: 50.0 mg/kg/injection, schedule: Q01DX001 (ip), vehicle: DMSO 111 % of control and 119 % of control and 121 % of control | endpoint: mean survival time, dose: 50.0 mg/kg/injection, schedule: Q01DX001 (ip), vehicle: Klucel (hydroxypropylcellulose) (HPC) 119 % of control and 121 % of control | endpoint: mean survival time, dose: 50.0 mg/kg/injection, schedule: Q01DX001 (ip), vehicle: water 111 % of control | endpoint: mean survival time, dose: 50.0 mg/kg/injection, schedule: Q08DX002 (ip), vehicle: saline 115 % of control | endpoint: mean survival time, dose: 59.0 mg/kg/injection, schedule: Q01DX001 (ip), vehicle: saline 117 % of control | endpoint: mean survival time, dose: 100.0 mg/kg/injection, schedule: Q01DX001 (ip), vehicle: water 112 % of control | endpoint: mean survival time, dose: 100.0 mg/kg/injection, schedule: Q01DX Z (ip), vehicle: saline 110 % of control | endpoint: mean survival time, dose: 100.0 mg/kg/injection, schedule: Q08DX002 (ip), vehicle: saline 117 % of control | endpoint: mean survival time, dose: 108.0 mg/kg/injection, schedule: Q01DX009 (sc), vehicle: saline 110 % of control | endpoint: mean survival time, dose: 200.0 mg/kg/injection, schedule: Q01DX001 (ip), vehicle: DMSO 110 % of control | endpoint: mean survival time, dose: 200.0 mg/kg/injection, schedule: Q01DX001 (ip), vehicle: Klucel (hydroxypropylcellulose) (HPC) 119 % of control | endpoint: mean survival time, dose: 200.0 mg/kg/injection, schedule: Q01DX001 (ip), vehicle: water 119 % of control | endpoint: mean survival time, dose: 300.0 mg/kg/injection, schedule: Q01DX001 (ip), vehicle: saline 114 % of control | endpoint: mean survival time, dose: 400.0 mg/kg/injection, schedule: Q08DX002 (ip), vehicle: saline 102 % of control | endpoint: mean survival time, dose: 500.0 mg/kg/injection, schedule: Q01DX001 (ip), vehicle: saline 106 % of control | endpoint: median survival time, dose: 1000.0 mg/kg/injection, schedule: Q01DX001 (oral), vehicle: saline 119 % of control | endpoint: median survival time, dose: 8000.0 mg/kg/injection, schedule: Q01DX001 (oral), vehicle: saline 45 % of control | endpoint: median survival time, dose: 16000.0 mg/kg/injection, schedule: Q01DX001 (oral), vehicle: saline 43 % of control

CCOC(N)=O
inactive: endpoint: mean survival time, dose: 1074.0 mg/kg/injection, schedule: Q01DX001 (ip), vehicle: saline 104 % of control | endpoint: mean survival time, dose: 1601.0 mg/kg/injection, schedule: Q01DX001 (ip), vehicle: saline 106 % of control
